Reference: patent US20230365596A1, “CRYSTAL FORMS OF PYRIDOPYRAZOLE COMPOUNDS AND PREPARATION METHOD THEREFOR” (GUANGZHOU BAIYUNSHAN PHARMACEUTICAL HOLDINGS CO., LTD. …, priority 2020, published 2023)

Assays:
[1] = Pharmacokinetic evaluation in mice (IV and PO); assay type: in vivo; settings: mouse, plasma, female Balb/c mice
Method: Experimental procedure: A 0.1 mg/mL clear solution of the test compound in the corresponding solvent medium (see Table 22) was injected into female Balb/c mice (fasting overnight, 7-9 weeks old) via tail vein at a dose of 0.2 mg/kg. About 30 μL of blood was collected from jugular vein or tail vein at 0.0833, 0.25, 0.5, 1.0, 2.0, 4.0, 8.0 and 24 h after intravenous administration. 0.2 mg/mL of the test compound suspended in the corresponding solvent medium (see Table 22) was given to female Balb/c mice (fasting overnight, 7-9 weeks old) by gavage at a dose of 2 mg/kg. The experimental conditions were detailed in Table 22. At 0.0833, 0.25, 0.5, 1.0, 2.0, 4.0, 6.0, 8.0 and 24 h after oral administration, about 30 μL of blood was collected from the jugular vein or tail vein of the female Balb/c mice. The blood was placed in an anticoagulant tube in which EDTA-K2 had been added, and plasma was separated by centrifugation. The plasma concentration was determined by LC-MS/MS method, and the relative pharmacokinetic parameters were calculated using WinNonlin™ Version 6.3 (Pharsight, Mountain View, CA) pharmacokinetic software by non-compartment model linear logarithmic trapezoidal method. [table]

[2] = target: RET (V804M) (Homo sapiens, UniProt P07949, V804M); experiment: In vitro enzyme activity test, RET (V804M) kinase; assay type: biochemical; settings: ATP 30 μM
Chain of RET (V804M) (P07949 29-1114 V804M): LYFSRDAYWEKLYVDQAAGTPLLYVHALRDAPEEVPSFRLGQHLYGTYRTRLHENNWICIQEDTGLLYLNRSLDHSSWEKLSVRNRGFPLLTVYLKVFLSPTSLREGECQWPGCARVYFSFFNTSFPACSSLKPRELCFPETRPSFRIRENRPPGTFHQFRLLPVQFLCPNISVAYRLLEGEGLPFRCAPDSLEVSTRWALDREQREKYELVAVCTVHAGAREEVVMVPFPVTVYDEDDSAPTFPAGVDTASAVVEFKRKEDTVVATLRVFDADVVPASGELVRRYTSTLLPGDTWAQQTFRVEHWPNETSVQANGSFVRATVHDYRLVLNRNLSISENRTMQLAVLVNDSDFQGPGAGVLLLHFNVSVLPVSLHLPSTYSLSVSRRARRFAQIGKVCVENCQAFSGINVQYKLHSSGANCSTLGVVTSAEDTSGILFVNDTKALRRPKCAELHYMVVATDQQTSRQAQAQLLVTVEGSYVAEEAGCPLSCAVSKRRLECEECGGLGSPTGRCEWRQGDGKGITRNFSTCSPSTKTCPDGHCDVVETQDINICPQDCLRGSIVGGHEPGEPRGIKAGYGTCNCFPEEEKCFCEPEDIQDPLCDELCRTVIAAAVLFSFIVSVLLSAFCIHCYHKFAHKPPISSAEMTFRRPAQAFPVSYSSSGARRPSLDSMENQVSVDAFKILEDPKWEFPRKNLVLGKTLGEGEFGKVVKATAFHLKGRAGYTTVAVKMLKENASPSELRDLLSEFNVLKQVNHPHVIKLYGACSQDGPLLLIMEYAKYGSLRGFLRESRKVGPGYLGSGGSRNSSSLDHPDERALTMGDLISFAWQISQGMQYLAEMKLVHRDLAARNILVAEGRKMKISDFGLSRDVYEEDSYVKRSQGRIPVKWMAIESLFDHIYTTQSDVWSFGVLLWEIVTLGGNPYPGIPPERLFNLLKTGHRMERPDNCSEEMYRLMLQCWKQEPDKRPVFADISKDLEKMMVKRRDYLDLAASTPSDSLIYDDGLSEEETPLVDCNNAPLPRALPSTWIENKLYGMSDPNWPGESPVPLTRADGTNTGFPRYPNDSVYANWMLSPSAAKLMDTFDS
Method: (§1) The enzyme activity was experimentally detected by Z'-LYTE™ kinase test, and the inhibitory effect of the compound on RET and RET (V804M) kinase was evaluated with the IC50 value of the compound as an indicator. The concentration of the compound used for the RET and RET (V804M) kinase test was diluted by a factor of 3, giving 10 concentrations from 3 μM to 0.152 nM. The content of DMSO in the detection reaction was 1%. Basic reaction buffer, 20 mM hydroxyethyl piperazine-ethanesulfonic acid (Hepes) (pH 7.5) buffer, 10 mM MgCl2, 1 mM ethylene glycol bis(aminoethyl ether)tetraacetic acid (EGTA), 0.02% polyoxyethylene dodecyl ether (Brij35), 0.02 mg/mL bovine serum protein, 0.1 mM Na3VO4, 2 mM dithiothreitol (DTT) and 1% DMSO. The compound to be tested was dissolved in 100% DMSO system and diluted to 10 mM for use. Integra Viaflo Assist was used for solution dilution. Test conditions: The concentration of RET enzyme was […], the concentration of the peptide substrate CHKtide was 1000 μM, and the concentration of ATP was 20 μM; and the concentration of RET (V804M) enzyme was […], the concentration of substrate peptide was 1000 μM, and the concentration of ATP was 30 μM. […]. Phosphoric acid with a concentration of 0.5% was added to the kinase reaction solution to stop the reaction, and Envision instrument was used for plate reading. […]

[3] = test system: Ba/F3-CCDC6-RET cell xenograft tumor model; experiment: Analysis of tumor growth inhibition (TGI); assay type: in vivo, BALB/c nude female mice; settings: 10 mg/kg D0-D13 / 5 mg/kg D14-D17 / 2.5 mg/kg D18-D28, BID
Method: Ba/F3-CCDC6-RET cell strain was cultured using 1640 medium (Biological Industries)+10% fetal bovine serum (BI)+1% double antibody (Penicillin Streptomycin solution, Coring, USA) at 37° C. with 5% CO2 and subcultured twice a week. When the cell saturation is 80-90%, cells were collected, counted, and inoculated subcutaneously into the right axillary of BALB/c nude female mice (6-8 weeks). After the inoculation was completed, the tumor growth status was observed day by day. When the average tumor volume reached about 165.77 mm^3, the mice were randomly divided into groups, with 6 mice per group, and administration was started.
The health status and death of the animals were detected daily. Routine examinations included tumor growth, activity, diet, weight, eyes, hair and other abnormal behaviors of the animals, and the tumor volume and weight were measured twice a week (Tuesday and Friday).
The inhibitory effect of the compound on tumor growth was evaluated by the relationship between tumor volume and time. The tumor volume was measured by vernier caliper, with the formula being TV=0.5 a×b^2, wherein, “a” was the long diameter of the tumor and “b” was the short diameter of the tumor. […]
it was calculated by the following formula: […]

[4] = target: RET (Homo sapiens, UniProt P07949); experiment: In vitro enzyme activity test, RET kinase; assay type: biochemical; settings: ATP 20 μM
Chain of RET (P07949 29-1114): as the sequence (P07949 29-1114 V804M) above, with M776V counted along it
Method: as §1

[5] = Solid stability experiment, high temperature and high humidity (XRPD); assay type: physicochemical
Source text: For samples placed under high temperature and high humidity, use aluminum foil to seal the bottle, and prick some holes on the aluminum foil to ensure that the sample can fully contact with the ambient air. The samples placed under different conditions were sampled for XRPD detection on Days 5 and 10, and the test results were compared with the initial test results on Day 0.

[6] = Solid stability study, long-term conditions (XRPD); assay type: physicochemical; settings: for Crystal form (XRPD): 3 months
Method: The flasks were placed under 40° C./75% RH conditions for 3 months or under 25° C./60% RH conditions for 3 months, then sampled for XRPD detection, and the detection results were compared with the initial test results of Day 0.

[7] = Hygroscopicity study by dynamic vapor sorption (DVS); assay type: physicochemical; settings: 25° C. and 80% RH
Method: • Instrument model: SMS DVS Intrinsic dynamic vapor sorption instrument • Test conditions: A sample (10-15 mg) is taken and placed in a DVS sample tray for testing.
Detailed DVS Parameters are as Follows: • Temperature: 25° C. • Balance: dm/dt=0.01%/min (shortest: 10 min, longest: 180 min) • Drying: at 0% RH for 120 min • RH (%) test gradient: 10% • RH (%) test gradient range: 0%-90%-0%
Hygroscopicity Assessment is Classified as Follows:
SMS DVS Intrinsic Dynamic Vapor Sorption Instrument

COc1ccc(CN2C3CC2CN(c2cnc(-c4cc(C5=CCOCC5)cn5ncc(C#N)c45)cn2)C3)cn1 [listing 1 of 2 here]
AUC(0-t) ([1]; IV 0.2 mg/kg): 2.79 µM·h | clearance ([1]; IV 0.2 mg/kg, read-out: Cl (plasma clearance)): 2.3 mL/min/kg | half-life ([1]; IV 0.2 mg/kg, read-out: T1/2 (elimination half-life) (converted)): 2.6 h | Vd ([1]; IV 0.2 mg/kg, read-out: Vdss (apparent steady-state distribution volume)): 0.5 L/kg | AUC(0-t) ([1]; PO 2 mg/kg): 26.9 µM·h | Cmax ([1]; PO 2 mg/kg): 5.34 µM | Tmax ([1]; PO 2 mg/kg): 2 h | IC50 [2]: 5.86 nM | TGI % (tumor volume on Day 23 after administration) [3]: 98% | IC50 [4]: 0.72 nM

COc1ccc(CN2C3CC2CN(c2cnc(-c4cc(C5=CCOCC5)cn5ncc(C#N)c45)cn2)C3)cn1 [listing 2 of 2 here]
Crystal form (XRPD) ([5]; High humidity (room temperature/relative humidity 92.5%, open), Day 5): Crystal form A | Crystal form (XRPD) ([5]; High humidity (room temperature/relative humidity 92.5%, open), Day 10): Crystal form A | Crystal form (XRPD) ([5]; High temperature (60° C., open), Day 5): Crystal form A | Crystal form (XRPD) ([5]; High temperature (60° C., open), Day 10): Crystal form A | Solid stability (in words) ([5]; high temperature and high humidity): good stability | Crystal form (XRPD) ([6]; 25° C./60% RH): Crystal form A | Crystal form (XRPD) ([6]; 40° C./75% RH): Crystal form A | Crystal form change (in words) ([6]; all stability conditions (40° C./75% RH, 25° C./60% RH, 3 months)): no crystal form change | Solid stability (in words) ([6]; long-term conditions): good stability | Classification of hygroscopicity [7]: slightly hygroscopic | ΔW (hygroscopic weight gain) [7]: 0.8%
